Source: patent publication US20220175710A1, “COMBINATION THERAPY” (Akershus Universitetssykehus HF, priority 2019, published 2022)
Entries after “also recorded” stand apart in the source; their conditions may differ.

Legend:
Type in all cases: cell-based, human
CHRNA7 [1] = experiment: Quantitative PCR of CHRNA7 transcription in THP-1 monocyte cultures; settings: for CHRNA7 ("N") transcription relative to TPA-treated unstimulated condition / N/M ratio (CHRNA7/CHRFAM7A transcription): FIG. 7; for CHRNA7 ("N") transcription relative to TPA-treated unstimulated condition: overnight; for CHRNA7 transcription (quantitative PCR): FIG. 6
Procedure: (§1) The human acute monocytic leukemia cell line THP-1 (ATCC TIB-202, ATCC, US) was cultured in RPMI 1640 with GlutaMax (Gibco, Life Technologies, UK) supplemented with 10% fetal bovine serum (FBS), (Gibco, Life Technologies, UK) and 1% Antibiotic/Antimycotic (Gibco, Life Technologies, UK) at 37° C. and 5% CO2.
(§2) 1,6 million cells were seeded in each well in 6-well plates and differentiated to macrophages by a 48 h treatment of 100 nM TPA (12-O-tetradecanoylphorbol-13-acetate), (Cell Signaling Technology, US). Cells were treated with 100 μM Docosahexaenoic acid (DHA), (Sigma Aldrich, Germany), 10 ng/ul Amyloid beta 1-40 (Aβ), (ApexBio, US), 10 μM PNU-120596, (Sigma Aldrich, Germany), 40 μM Galanthamine hydrobromide, (Sigma Aldrich, Germany) and combinations overnight (approximately 20 h).
(§3) Total RNA was isolated with the RNeasy Plus Mini kit (Qiagen) using genomic DNA eliminator columns. THP-1 cells were lysed directly in the wells using 350 μl RLT Plus according to the protocol and stored at −80° C. The frozen lysate was incubated at 37° C. in a water bath until completely thawed and homogenized using QIAshredder (Qiagen) spin columns. RNA was eluted in 30 μl RNase free water and the quantity assessed using the NanoDrop ND-1000 Spectrophotometer (NanoDrop Technologies).
(§4) 1 μg total RNA was reverse transcribed using the QuantiTect cDNA Reverse Transcription Kit (Qiagen). Due to low CHRNA7 expression (Cq values>38, Table 2), we increased RNA input to 2 μg, changed the reverse transcription kit to High Capacity Reverse Transcription Kit (Life Technologies AS) and the cDNA was preamplified using TaqMan PreAmp Master Mix (Life Technologies AS), running 18 cycles and diluted 1:20 (FIG. 7). We then obtained Cq values<27 (average 25,4) for CHRNA7 and <20 (average 18,6 for CHRFAM7A). Absolute quantification was run using CHRFAM7A and CHRNA7 synthetic oligonucleotides standards (GeneArt, Life Technologies AS). 2.5 ul cDNA diluted 1:20 after preamplification was applied per qPCR reaction using TaqMan gene expression assays CHRFAM7A (Hs04189909_m1) and CHRNA7 (Hs01063372_m1) (Thermo Fisher) and TaqMan Gene expression Master Mix (Life Technologies AS) in a total volume of 10 μl and run in triplicates on Quant Studio 7 (Applied Biosystems).

CHRFAM7A [2] = experiment: Quantitative PCR of CHRFAM7A transcription in THP-1 monocyte cultures; settings: for CHRFAM7A ("M") transcription relative to TPA-treated unstimulated condition: FIG. 7, overnight; for CHRFAM7A transcription (quantitative PCR): FIG. 6
Procedure: as §1, §2, §3, §4

CHRNA7 [3] = experiment: Western blot of CHRNA7 (56 kDa band) in TPA differentiated THP-1 cells; settings: for CHRNA7 (56 kDa protein) expression, conclusion in words: Table 1 / FIG. 4, both experiments
Procedure: The cellular samples were tested for the presence of the α7 subtype of the nicotinic acetylcholine receptor (nAChR) by Western blot analysis on THP-1 cells that were incubated with and without Abeta1-42 and with and without DHA. The purpose of this was to show monocytic membrane expression of nAChR and to explore altered regulation of this receptor in response to DHA stimulation.
The THP-1 cells were seeded in 6-well plates with 2 mL per well at a concentration of 830 000 cells/mL (experiment 1) or 860 000 cells/ml (experiment 2), and differentiated using 100 nM TPA (12-O-Tetradecanoylphorbol-13-Acetate) for 24 hours. For the experiments, DHA was added to give a concentration of 100 uM (experiment 1) or 10 uM and 100 uM (experiment 2), and Aβ42 was added at a final concentration of 2.5 ng/ul.
The cells were incubated overnight (18 hours). Each DHA experiment had parallels of cells not incubated with DHA. After incubation the cells were kept cold, scraped loose and transferred to 15-ml tubes. Cells were washed twice with cold PBS before resuspended in 100 ul PBS and transferred to an Eppendorf tube. The cells were lysed through five freeze thaw cycles, and total protein in each sample was determined by the BCA protein assay. Samples were stored at −80° C. upon analysis.
Western blot analysis was performed cat no 21379-1-AP, Proteintech, using 1:1000 using dilution. The secondary antibody was a goat anti-rabbit IgG-HRP (cat no 4030-05, Southern Biotech) diluted 1:2000. Solvents for dilutions were as described below.
Samples were dissolved in 4× Laemmli buffer w/ b-ME (BioRad and, respectively) denatured at 95° C. for 5 min, and a quantity of 12 μg protein/sample/well was loaded to the gel. A volume of 10 uL of Precision Plus protein Dual Xtra Color Standards (BioRad) was used for molecular weight estimation. The samples were resolved in 8-16% gradient SDS-PAGE (Criterion TGX precast gels, BioRad) and immunoblotted onto PVDF membranes (GE Healthcare). Membranes were blocked in 5% non-fat dried milk in 1× Tris Buffered Saline containing 0.1% Tween20 (1×TBS-T) (BioRad) at room temperature for 1 h and incubated overnight at 4° C. with primary antibodies in 1×TBS-T with 1% non-fat dried milk. After washing, the membranes were incubated with secondary antibody in 5% non-fat dried milk in 1×TBS-T for 1 h at room temperature. The blots were visualized by ECL Plus Western blotting detection system (GE Healthcare) according to the supplier's instructions. Membranes were visualized on the LAS-3000 mini (Fujifilm Corporation) and band intensities were quantified using MultiGauge analysis software (Fujifilm Corporation).
Bands presented are at the predicted MW of the nAChR (56 kDa).
(§5) DHA: Docosahexaenoic acid, Aβ1-40 peptides: the conventional amyloid beta peptide containing 40 amino acids.

CHRNA7 [4] = experiment: as above; settings: FIG. 5; co-stimulation with DHA and Aβ1-40 peptide, compared with DHA alone
CHRFAM7A [5] = experiment: Western blot of CHRFAM7A in differentiated THP-1 cells; settings: FIG. 5
Description: as §5

THP-1 cells = experiment: IP LC-MS of Abeta-40 degradation in monocytic THP-1 cells
Procedure: Firstly, a cell model was used to study the effect of the omega-3 fatty acid DHA on degradation of amyloid beta. Here, the THP-1 cells were incubated with and without DHA (1 μM), and subsequently with Abeta (1-40 aa, 10 ng/μL). Secondly, monocyte from healthy controls (NC) and patients with neurodegenerative diseases (AD) were isolated. In both these cases, the cells were lysed and IP LC-MS was performed.
In FIG. 1, each bar in the graph represents the accumulated cleavage sites on each position along the 40 amino acids in Abeta 1-40. Thus the bar contains peptides of various lengths, but with the same start or end amino acid. Three parallels were analysed for each condition/sample group, which refers to the triplicate incubations of each condition, with or without DHA.
Monocytic THP-1 cells were used as a model system, and IP LC-MS as analytical approach to investigate the effect of DHA on monocytic Abeta-40 processing.
A THP-1 cell line culture was matured and differentiated, split to be control and stimulated parallels and this was replicated to be performed a total of 7 times (controls n=7; DHA stimulated n=7). Test cells were incubated with DHA overnight, and all samples were incubated with Abeta-40 for 1 to 2 hours. The cells were lysed by freeze-thaw cycles prior to immunoprecipitation performed with two commercial and one in-house antibody. […]

[6] = stimulus as labelled, nothing else added, 100 μM DHA, 10 μM PNU-120596, 40 μM Galanthamine hydrobromide, 10 ng/ul Aβ 1-40
[7] = co-stimulation with DHA and Aβ1-40 peptide, compared with DHA alone
[8] = stimulus as labelled plus Amyloid β 1-40 10 ng/ul

## COc1cc(OC)c(NC(=O)Nc2cc(C)on2)cc1Cl [PNU-120596]
CHRNA7 [1]; [6]
  CHRNA7 ("N") transcription relative to TPA-treated unstimulated condition: smaller changes
CHRFAM7A [2]; [6]
  CHRFAM7A ("M") transcription relative to TPA-treated unstimulated condition: smaller changes

## Amyloid 13: the conventional amyloid beta peptide containing 40 amino acids
CHRNA7 [1]; [6]
  CHRNA7 ("N") transcription relative to TPA-treated unstimulated condition: reduced
CHRFAM7A [2]; [6]
  CHRFAM7A ("M") transcription relative to TPA-treated unstimulated condition: reduced

## Ab1-42: the conventional amyloid beta peptide containing 42 amino acids
CHRNA7 [3]; Exp 1, Ab1-42 only, 2.5 ng/ul, 18 hours
  ~56 kDa Band signal intensity: 1.7E+06
CHRNA7 [3]; Exp 2, Ab1-42 only, 2.5 ng/ul, 18 hours
  ~56 kDa Band signal intensity: 2.1E+06
CHRNA7 [3]
  CHRNA7 (56 kDa protein) expression, conclusion in words: lower expression

## CC/C=C\C/C=C\C/C=C\C/C=C\C/C=C\C/C=C\CCC(=O)O [DHA, (4Z, 7Z, 10Z, 13Z, 16Z, 19Z)-4,7, 10, 13, 16, 19-docosahexaenoic acid]
CHRNA7 [4]
  CHRNA7 expression (Western blot): more pronounced
CHRNA7 [1]; DHA alone
  CHRNA7 transcription (quantitative PCR): increase
CHRNA7 [1]; [7]
  CHRNA7 transcription (quantitative PCR): more pronounced
CHRNA7 [1]; [8]
  N/M ratio (CHRNA7/CHRFAM7A transcription): increased; also recorded: higher
  CHRNA7 ("N") transcription relative to TPA-treated unstimulated condition: unaltered; also recorded: increases
CHRNA7 [1]; stimulus as labelled, no Amyloid β added
  N/M ratio (CHRNA7/CHRFAM7A transcription): increased
CHRNA7 [1]; [6]
  CHRNA7 ("N") transcription relative to TPA-treated unstimulated condition: stable
CHRFAM7A [2]; DHA alone
  CHRFAM7A transcription (quantitative PCR): decrease
CHRFAM7A [2]; [7]
  CHRFAM7A transcription (quantitative PCR): more pronounced
CHRFAM7A [2]; [8]
  CHRFAM7A ("M") transcription relative to TPA-treated unstimulated condition: reduces
CHRFAM7A [2]; [6]
  CHRFAM7A ("M") transcription relative to TPA-treated unstimulated condition: reduced
CHRFAM7A [5]; DHA alone
  CHRFAM7A expression (Western blot): decrease
CHRFAM7A [5]; [7]
  CHRFAM7A expression (Western blot): more pronounced
CHRNA7 [3]; Exp 1, 100 uM Dha alone, TPA differentiated THP-1, 18 hours
  ~56 kDa Band signal intensity: 3.5E+06
CHRNA7 [3]; Exp 1, Ab1-42 (2.5 ng/ul) + 100 uM Dha, 18 hours
  ~56 kDa Band signal intensity: 3.0E+06
CHRNA7 [3]; Exp 2, Ab1-42 (2.5 ng/ul) + 10 uM Dha, 18 hours
  ~56 kDa Band signal intensity: 2.6E+06
CHRNA7 [3]; Exp 2, Ab1-42 (2.5 ng/ul) + 100 uM Dha, 18 hours
  ~56 kDa Band signal intensity: 2.7E+06
CHRNA7 [3]; FIG. 5, DHA alone
  CHRNA7 expression (Western blot): increase
CHRNA7 [3]
  CHRNA7 (56 kDa protein) expression, conclusion in words: upregulation
THP-1 cells; DHA 1 μM, then Abeta 1-40 10 ng/μL, FIG. 1
  Abeta cut pattern (enzymatic activities), DHA versus no DHA: differing enzymatic activities
THP-1 cells; DHA overnight, then Abeta-40 for 1 to 2 hours, controls n=7, DHA stimulated n=7, semi-quantitative
  average ratio of catabolic peptides in DHA versus control samples: 1.3 (12% RSD)
